Several values for one entry are separate records, joined by “and”; a condition that tells them apart may be missing. Equal values may be shown once.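 Cultured in 96-well plates, cells were exposed to test compound for 48 hours across five concentrations. GI50 marks 50% less growth. TGI: total growth inhibition.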
Legend:
Experiment in all cases: inhibition of tumour cell growth, NCI panel, 48 h
HCC-2998 colon = system: HCC-2998 colon
HL-60(TB) leukemia = system: HL-60(TB) leukemia
UO-31 renal = system: UO-31 renal
PC-3 prostate = system: PC-3 prostate
MCF7 breast = system: MCF7 breast
NCI-H226 lung = system: NCI-H226 lung
NCI-H522 lung = system: NCI-H522 lung
SF-295 CNS = system: SF-295 CNS
SW-620 colon = system: SW-620 colon
UACC-257 melanoma = system: UACC-257 melanoma

Structure (SMILES)	GI50 (HCC-2998 colon)	TGI (HCC-2998 colon)	GI50 (HL-60(TB) leukemia)	TGI (HL-60(TB) leukemia)	GI50 (UO-31 renal)	TGI (UO-31 renal)	GI50 (PC-3 prostate)	TGI (PC-3 prostate)	GI50 (MCF7 breast)	TGI (MCF7 breast)	GI50 (NCI-H226 lung)	TGI (NCI-H226 lung)	GI50 (NCI-H522 lung)	TGI (NCI-H522 lung)	GI50 (SF-295 CNS)	TGI (SF-295 CNS)	GI50 (SW-620 colon)	TGI (SW-620 colon)	GI50 (UACC-257 melanoma)	TGI (UACC-257 melanoma)
CN1CCN(c2ccc3nc(-c4[nH]ncc4Nc4ncnc5c4OCCCN5)[nH]c3c2)CC1	0.0159 µM	0.0762 µM	< 0.01 µM	0.0298 µM	0.0179 µM	0.0578 µM	< 0.01 µM	0.0671 µM	< 0.01 µM	0.145 µM	< 0.01 µM	0.0573 µM	< 0.0117 µM	0.0488 µM	0.0162 µM	0.0769 µM	< 0.01 µM	0.112 µM	0.0252 µM	0.213 µM
O=C(Nc1ccc(Oc2ccc(NC(=O)Nc3ccc([N+](=O)[O-])cc3)cc2)cc1)Nc1ccc([N+](=O)[O-])cc1	2.28 µM	8.02 µM	0.787 µM	3.41 µM	0.516 µM	> 26.4 µM	1.04 µM	> 22.8 µM	1.68 µM	6.22 µM	2.9 µM	27.8 µM	1.03 µM	4.32 µM	1.17 µM	17.9 µM	2.51 µM	> 56.3 µM	2.82 µM	> 26 µM
COc1cc(-c2nc(-c3ccc(-c4nc5ccc(F)cc5[nH]4)cc3)no2)cc(OC)c1OC	6.13 µM	40.4 µM	2.24 µM	5.35 µM	2.51 µM	6.3 µM	2.33 µM	7.59 µM	2.88 µM	13.5 µM	2.72 µM	10.7 µM	3.04 µM	8.98 µM	2.31 µM	7.02 µM	3.61 µM	16.1 µM	3.7 µM	14.8 µM
c1ccc2cc(C[n+]3ccn(Cc4ccc5ccccc5n4)c3)ccc2c1	0.389 µM and 2.65 µM	3.76 µM and 12.7 µM	0.214 µM and 0.827 µM	0.653 µM and 3.05 µM	10.6 µM and 35.8 µM	25.4 µM and > 100 µM	0.342 µM and 2.39 µM	3.18 µM and 13.9 µM	0.353 µM and 2.98 µM	2.36 µM and 13.4 µM	1.06 µM and 4.51 µM	4.87 µM and 21.6 µM	0.275 µM and 2.3 µM	–	0.71 µM and 4.46 µM	4.98 µM and 18.7 µM	0.734 µM and 6.27 µM	11.8 µM and 22.1 µM	0.28 µM and 2.7 µM	–
O=C(Nc1ccc(Nc2ccncc2)cc1)c1ccc(Nc2ccnc3ccc([N+](=O)[O-])cc23)cc1[N+](=O)[O-]	32.9 µM	> 100 µM	25 µM	> 58.7 µM	7.33 µM	> 64.1 µM	5.05 µM	> 40 µM	4.73 µM	> 100 µM	37.5 µM	> 93.9 µM	21.9 µM	68.6 µM	6.69 µM	98.3 µM	26.8 µM	> 55.5 µM	11.3 µM	29.5 µM
Oc1ccc(Oc2cnc3cc(Cl)ccc3n2)cc1	24.1 µM	61.6 µM	2.25 µM	> 100 µM	3.88 µM	94 µM	23.6 µM	> 100 µM	38.1 µM	> 100 µM	55.4 µM	> 100 µM	19.1 µM	> 100 µM	22.6 µM	74.5 µM	38.2 µM	> 100 µM	65.7 µM	> 100 µM
Fc1ccc([C@@H]2CCNC[C@H]2COc2ccc3c(c2)OCO3)cc1	2.1 µM	4.39 µM	4.95 µM	19.9 µM	5.76 µM	19.6 µM	3.83 µM	17.2 µM	3.23 µM	14.6 µM	13.7 µM	29.9 µM	12 µM	25.4 µM	4.07 µM	17.1 µM	10.6 µM	24.2 µM	11.2 µM	24.6 µM
CCOC(=O)c1ccc(N(C=O)CCC(=O)CCl)cc1	0.372 µM	1.54 µM	0.0438 µM	0.351 µM	0.552 µM	1.98 µM	0.401 µM	14.8 µM	0.0532 µM	–	0.297 µM	1.36 µM	0.138 µM	0.617 µM	1.2 µM	13 µM	0.0398 µM	1.53 µM	1.5 µM	8.33 µM
O=C1NC(=O)[C@@H](c2c[nH]c3ccccc23)[C@@H]1c1c[nH]c2ccccc12	> 25 µM	> 25 µM	> 25 µM	> 25 µM	> 16.4 µM	> 25 µM	> 25 µM	> 25 µM	> 25 µM	> 25 µM	> 25 µM	> 25 µM	> 25 µM	> 25 µM	> 25 µM	> 25 µM	> 25 µM	> 25 µM	> 25 µM	> 25 µM
OCCn1cc(-c2cnc3nnn(Cc4ccc5ncccc5c4)c3n2)cn1	> 100 µM	> 100 µM	> 100 µM	> 100 µM	> 100 µM	> 100 µM	> 100 µM	> 100 µM	> 100 µM	> 100 µM	> 100 µM	> 100 µM	> 100 µM	> 100 µM	–	> 100 µM	> 100 µM	> 100 µM	> 100 µM	> 100 µM
COc1ccc(/C=N\NC(=O)c2ccc3nc(-c4ccc(Cl)cc4)[nH]c3c2)cc1	2.57 µM	6.44 µM	13 µM	> 100 µM	1.86 µM	6.38 µM	1.66 µM	3.76 µM	1.47 µM	3.84 µM	1.79 µM	4.43 µM	7.6 µM	81.5 µM	2.23 µM	5.05 µM	2.41 µM	5.58 µM	3.27 µM	10.1 µM
